The assay has as its target T1, recominbant human tryptase, beta, from lung (Homo sapiens, UniProt P20231).
T1 construct: purchased Promega or Enzo Life Sciences G5631 or BML-SE418
The experiment in a line: Inhibition of tryptase activity by monomers and multimers (Boc-Gln-Ala-Arg-AMC fluorescence). It is filed as biochemical. To be noted: monomers against tryptase. The gist of the method: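 Recombinant human lung β-tryptase (1 nM final; stock with heparin sulfate and 1 M NaCl) preincubated with test substance, then 200 μM Boc-Gln-Ala-Arg-AMC added in 50 mM HEPES, 150 mM NaCl, 100 μM EDTA, 0.02% Tween-20, pH 7.4. AMC fluorescence (ex 367/em 468 nm) read every 30 s for 15–30 min; IC50 from Vmax concentration-response curves.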

Where [1] appears, read: Table 5, read-out: Monomer IC50 range.
Where [2] appears, read: read-out: IC50 range group of additional monomers (boronic acid, benzooxaborole, ligands).
Where [3] appears, read: entry marked (1:10), read-out: IC50 range group of additional monomers marked (1:10).

pIC50: −log10 of the molar value. Structures can show the parent of a compound that is named as a salt. Where two headings read alike, the source gives them in different places.

T1 sequence (P20231 31-275): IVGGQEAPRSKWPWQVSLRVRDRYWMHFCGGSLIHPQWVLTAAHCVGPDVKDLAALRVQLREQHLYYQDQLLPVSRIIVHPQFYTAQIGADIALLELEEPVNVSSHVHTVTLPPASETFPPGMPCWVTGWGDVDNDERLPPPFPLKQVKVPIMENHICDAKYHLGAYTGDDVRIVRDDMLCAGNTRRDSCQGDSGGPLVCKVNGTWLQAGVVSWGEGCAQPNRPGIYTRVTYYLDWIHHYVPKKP

Regarding `NCc1cccc(C2CCN(C(=O)/C=C/c3ccc(O)c(O)c3)CC2)c1` [T24, (E)-1-(4-(3-(aminomethyl)phenyl)piperidin-1-yl)-3-(3,4-dihydroxyphenyl)prop-2-en-1-one hydrochloride], the pIC50 (usually −log10 of the IC50, conventionally taken in molar units) is 5.00 to 6.00 under setting [1] and 5.00 to 6.00 under setting [2].

As to `NCc1cccc(C2CCN(C(=O)c3cc4c(B(O)O)cccc4s3)CC2)c1` [T56, 2-(4-(3-(aminomethyl)phenyl)piperidine-1-carbonyl)benzo[b]thiophen-4-ylboronic acid], the pIC50 runs as follows: under setting [1], 6.00 to 10.00; under setting [2], 6.00 to 10.00.

Turning to `NCc1cccc(C2CCN(C(=O)c3cccc(N4C[C@@H](O)[C@@H](O)C4)c3)CC2)c1` [T25B, (4-(3-(aminomethyl)phenyl)piperidin-1-yl)(3-((3S,4R)-3,4-dihydroxypyrrolidin-1-yl)phenyl)methanone], the pIC50 is 6.00 to 10.00 under setting [1] and 6.00 to 10.00 under setting [3].

On to `NCc1cccc(C2CCN(C(=O)c3cccc4sc(B(O)O)cc34)CC2)c1` [T37, 4-(4-(3-(aminomethyl)phenyl)piperidine-1-carbonyl)benzo[b]thiophen-2-ylboronic acid], for which the pIC50 under setting [1] was 5.00 to 6.00 and the pIC50 under setting [2] is 5.00 to 6.00.

For the compound `NCc1cccc(C2CCN(C(=O)/C=C/c3cc(O)c(O)c(O)c3)CC2)c1` [T43, (E)-1-(4-(3-(aminomethyl)phenyl)piperidin-1-yl)-3-(3,4,5-trihydroxyphenyl)prop-2-en-1-one], the pIC50 under setting [1] is 6.00 to 10.00 and the pIC50 under setting [2] is 6.00 to 10.00.

`CSc1sc(C(=O)N2CCC3(CC2)COc2ccc(CN)cc23)cc1-c1cccc2c1COB2O` [T117SPIRO]: under setting [2], the pIC50 is 6.00 to 10.00.

With `NCc1cccc(C2CCN(C(=O)c3ccc(-c4ccc5c(c4)COB5O)cc3)CC2)c1` [T36, (4-(3-(aminomethyl)phenyl)piperidin-1-yl)(4-(1-hydroxy-1,3-dihydrobenzo[c][1,2]oxaborol-5-yl)phenyl)methanone], the pIC50 under setting [1] was 5.00 to 6.00 and the pIC50 under setting [2] was 5.00 to 6.00.

On to `NCc1ccc(C(=O)NCc2ccc(OCC(=O)N3CC(=O)[C@H](O)C3)cc2)cc1` [CF7, (R)-4-(aminomethyl)-N-(4-(2-(3-hydroxy-4-oxopyrrolidin-1-yl)-2-oxoethoxy)benzyl)benzamide hydrochloride], for which the pIC50 under setting [1] was 5.00 to 6.00.

Consider `NCc1ccc2c(c1)C1(CCN(C(=O)c3cc(O)c(O)c(Cl)c3)CC1)CO2` [T78SPIRO, (5-(aminomethyl)-2H-spiro[benzofuran-3,4′-piperidine]-1′-yl)(3-chloro-4,5-dihydroxyphenyl)methanone], for which the pIC50 reads like this: under setting [1], 6.00 to 10.00; under setting [2], 6.00 to 10.00.

Turning to `NCc1cccc(C2CCN(C(=O)c3cc(=O)oc4c(O)c(O)ccc34)CC2)c1` [T96], the pIC50 under setting [2] was 5.00 to 6.00.

As to `NCc1cccc(C2CCN(C(=O)c3cccc(NC(=O)C4CC5CC4C(O)C5O)c3)CC2)c1` (racemic) [T139RACEENDO, (±) endo-N-(3-(4-(3-(aminomethyl)phenyl)piperidine-1-carbonyl)phenyl)-5,6-syn-dihydroxybicyclo[2.2.1]heptane-2-carboxamide], the pIC50 under setting [2] is 5.00 to 6.00.

On to `NCc1ccc2c(c1)C1(CCN(C(=O)c3ccc(OCC(O)CO)cc3)CC1)CO2` (stereo not drawn) [CF15, (5-(aminomethyl)-2H-spiro[benzofuran-3,4′-piperidine]-1′-yl)(4-(2,3-dihydroxypropoxy)phenyl)methanone hydrochloride], for which the pIC50 under setting [1] is 5.00 to 6.00.

Consider `NCc1ccc2c(c1)C1(CCN(C(=O)c3cccc(-c4cccc(B(O)O)c4F)c3)CC1)CO2` [T133SPIRO], for which the pIC50 under setting [2] is 6.00 to 10.00.

`NCc1cccc(C2CCN(C(=O)c3ccc4c(ccn4CC(O)(C(=O)O)c4ccccc4)c3)CC2)c1` (stereo not drawn) [T83, 3-(5-(4-(3-(aminomethyl)phenyl)piperidine-1-carbonyl)-1H-indol-1-yl)-2-hydroxy-2-phenylpropanoic acid]: the pIC50 runs as follows: under setting [1], 6.00 to 10.00; under setting [3], 6.00 to 10.00.

Consider `NCc1cccc(C2CCN(C(=O)c3ccc(C(N)=O)c(O)c3)CC2)c1` [T75, 4-(4-(3-(aminomethyl)phenyl)piperidine-1-carbonyl)-2-hydroxybenzamide], for which the pIC50 reads like this: under setting [1], 5.00 to 6.00; under setting [2], 5.00 to 6.00.

Take `Cc1c(CC(=O)N2CCC(c3cccc(CN)c3)CC2)c(=O)oc2cc(O)c(O)cc12` [T99]: under setting [2], the pIC50 was 5.00 to 6.00.

For `NCc1cccc(C2CCN(C(=O)Cc3cc(=O)oc4cc(O)c(O)cc34)CC2)c1` [T97, 4-(2-(4-(3-(aminomethyl)phenyl)piperidin-1-yl)-2-oxoethyl)-6,7-dihydroxy-2H-chromen-2-one], the pIC50 under setting [1] was 5.00 to 6.00 and the pIC50 under setting [2] was 5.00 to 6.00.

As for `NCc1cccc(C2CCN(C(=O)/C=C/c3ccc(C(N)=O)c(O)c3)CC2)c1` [T76, (E)-4-(3-(4-(3-(aminomethyl)phenyl)piperidin-1-yl)-3-oxoprop-1-enyl)-2-hydroxybenzamide], the pIC50 under setting [1] was 6.00 to 10.00 and the pIC50 under setting [2] was 6.00 to 10.00.

For `CONC(=O)c1cc(C(=O)N2CCC3(CC2)COc2ccc(CN)cc23)cc(C)c1O` [T114Spiro], under setting [2], the pIC50 was 6.00 to 10.00.

Consider `NCc1ccc(C(=O)NCc2ccc(OCCC(=O)N3CC(=O)[C@H](O)C3)cc2)cc1` [CF12, (R)-4-(aminomethyl)-N-(4-(3-(3-hydroxy-4-oxopyrrolidin-1-yl)-3-oxopropoxy)benzyl)benzamide hydrochloride], for which the pIC50 under setting [1] was 5.00 to 6.00.

As to `CONC(=O)c1ccc(C(=O)N2CCC3(CC2)COc2ccc(CN)cc23)cc1O` [T75ASPIRO], the pIC50 under setting [3] is 6.00 to 10.00.

As to `NCc1cccc(C2CCN(C(=O)c3cccc(C(=O)N4C[C@@H](O)[C@@H](O)C4)c3)CC2)c1` [T26diol trans, (4-(3-(aminomethyl)phenyl)piperidin-1-yl)(3-((3S,4R)-3,4-dihydroxypyrrolidine-1-carbonyl)phenyl)methanone], the pIC50 by setting is: under setting [1], 5.00 to 6.00; under setting [2], 5.00 to 6.00.

In the case of `NCc1cccc(C2CCN(C(=O)C3CC4CCC3C(O)C4O)CC2)c1` (racemic) [T142ENDOSYN, (±) endo (4-(3 (aminomethyl)phenyl)piperidin-1-yl)(-5,6-syn-dihydroxybicyclo[2.2.2]octan-2-yl)methanone], the pIC50 under setting [2] is 4.19 to 5.00.

Regarding `N=C(N)c1ccc2c(c1)C1(CCN(C(=O)c3cccc(-c4cccc(B(O)O)c4)c3)CC1)CO2` [T35SPAM, 3′-(5-carbamimidoyl-2H-spiro[benzofuran-3,4′-piperidine]-1′-ylcarbonyl)biphenyl-3-ylboronic acid], under setting [2], the pIC50 is 6.00 to 10.00.

Turning to `NCc1ccc(F)c(C2CCN(C(=O)c3cccc4ccc(B(O)O)cc34)CC2)c1` [T11F, 8-(4-(5-(aminomethyl)-2-fluorophenyl)piperidine-1-carbonyl)naphthalen-2-ylboronic acid], the negative logarithm of the IC50 (pIC50) is, setting by setting: under setting [1], 5.00 to 6.00; under setting [2], 5.00 to 6.00.

As to `CSc1sc(C(=O)N2CCC3(CC2)COc2ccc(CN)cc23)cc1-c1cccc(B(O)O)c1` [T116SPIRO], the pIC50 under setting [3] was 6.00 to 10.00.

Regarding `NCc1ccc2c(c1)C1(CCN(C(=O)c3cccc(-c4cccc5c4COB5O)c3)CC1)CO2` [T112SPIRO], the pIC50 under setting [2] was 5.00 to 6.00.

In the case of `NCc1cccc(C2CCN(C(=O)c3cc(O)c(O)c(Cl)c3)CC2)c1` [T78, (4-(3-(aminomethyl)phenyl)piperidin-1-yl)(3-chloro-4,5-dihydroxyphenyl)methanone], the pIC50 reads like this: under setting [1], 6.00 to 10.00; under setting [2], 6.00 to 10.00.

Turning to `NCc1ccc2c(c1)C1(CCN(C(=O)c3ccc(O)c(C(=O)NOc4ccccc4)c3)CC1)CO2` [T92PHSPIRO], the pIC50 under setting [2] is 5.00 to 6.00.

Turning to `NCc1cccc(C2CCN(C(=O)c3ccc(B(O)O)c4cccnc34)CC2)c1` [T51], the pIC50 under setting [2] is 4.19 to 5.00.

`NCc1cccc(C2CCN(C(=O)Cc3ccc(O)c(F)c3)CC2)c1` [T54A, 1-(4-(3-(aminomethyl)phenyl)piperidin-1-yl)-2-(3-fluoro-4-hydroxyphenyl)ethanone]: the pIC50 under setting [1] is 5.00 to 6.00.
